Assay results reported in patent publication US20050043333A1, “Quinazolinone derivative” (Fujisawa Pharmaceutical Co., Ltd, priority 2001, published 2005).

Target: recombinant human PARP (Homo sapiens, UniProt P09874)
Assay: PARP Inhibitory Activity (In Vitro Assay)
Assay type: biochemical
Conditions: 32P-NAD, 0.05 mM NAD, activated DNA, 15 minutes at room temperature
Description: Incubation was for 15 minutes at a room temperature and the reaction was stopped by the addition of 200 μl of ice-cold 20% trichloroacetic acid followed by rapid filtration through GF/B filters. The filters were treated with scintillation fluid and acid-insoluble counts were measured for quantification of unit activity.

Sequence of recombinant human PARP (P09874 whole entry): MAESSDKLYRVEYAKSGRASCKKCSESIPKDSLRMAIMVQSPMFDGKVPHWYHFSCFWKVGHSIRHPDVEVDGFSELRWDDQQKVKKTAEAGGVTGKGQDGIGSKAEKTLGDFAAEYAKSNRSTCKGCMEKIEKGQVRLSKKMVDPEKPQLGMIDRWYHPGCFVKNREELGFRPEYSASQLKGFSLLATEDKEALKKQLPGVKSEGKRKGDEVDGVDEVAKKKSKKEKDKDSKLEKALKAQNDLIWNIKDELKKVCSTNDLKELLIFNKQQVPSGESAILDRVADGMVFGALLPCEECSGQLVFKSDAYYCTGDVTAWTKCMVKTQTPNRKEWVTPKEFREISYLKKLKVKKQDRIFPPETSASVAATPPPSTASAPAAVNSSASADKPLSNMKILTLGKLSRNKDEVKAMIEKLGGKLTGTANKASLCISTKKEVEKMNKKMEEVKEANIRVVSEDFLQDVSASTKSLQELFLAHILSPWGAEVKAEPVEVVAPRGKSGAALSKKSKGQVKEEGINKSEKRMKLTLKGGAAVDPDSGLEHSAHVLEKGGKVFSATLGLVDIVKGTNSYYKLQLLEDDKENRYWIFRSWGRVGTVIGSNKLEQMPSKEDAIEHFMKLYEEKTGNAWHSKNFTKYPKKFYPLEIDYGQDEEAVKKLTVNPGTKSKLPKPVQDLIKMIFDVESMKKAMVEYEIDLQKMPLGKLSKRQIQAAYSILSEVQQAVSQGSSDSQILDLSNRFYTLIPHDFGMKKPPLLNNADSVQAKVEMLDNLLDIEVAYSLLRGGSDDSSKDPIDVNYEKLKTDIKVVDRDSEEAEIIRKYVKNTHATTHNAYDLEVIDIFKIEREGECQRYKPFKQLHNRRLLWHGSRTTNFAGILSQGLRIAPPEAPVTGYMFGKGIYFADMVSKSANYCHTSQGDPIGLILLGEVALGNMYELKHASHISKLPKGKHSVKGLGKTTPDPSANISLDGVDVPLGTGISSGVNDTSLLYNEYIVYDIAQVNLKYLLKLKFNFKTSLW

## O=c1[nH]c(C2=CC(N3CC=C(c4ccccc4)CC3)CC2)nc2ccccc12 (stereo not shown) [Compound A, 2-[3-(4-phenyl-3,6-dihydro-1(2H)-pyridinyl)-1-cyclopenten-1-y 1]-4(3H)-quinazolinone]
  IC50: < 500 nM
